Like-named read-outs stand apart in the source and are kept apart here.
Columns and labels:
pPDGFRβ (Y1021) [1] = biological target: T1, pPDGFRβ (Y1021) (Rattus norvegicus, UniProt Q05030); assay: Western blot of pPDGFRβ (Y1021) in lung lysates of rats with pulmonary hypertension after inhaled Compound 1; type: in vivo; settings: pPDGFRβ (Y1021) vs total PDGFRβ
T1 construct: Lung tissue samples were homogenized in pH 7.4 lysis buffer; from tissue; host or cells: rat lung (male SD rats)

[2] = rat, in vivo, 0.4 mg/kg
[3] = test system: AAV-PDGFB overexpression SU5416 hypoxia rat model of PH; assay: AAV-PDGFB SU5416 hypoxia study: RVSP, right ventricular hypertrophy, lumen/media ratio; type: in vivo
in vivo = settings: male, Sprague Dawley, rat
PDGFRβ = PDGFRβ (Homo sapiens, UniProt P09619); settings: human lung fibroblasts
[4] = biological target: T2, phosphorylated PDGFRα (Y751) (Rattus norvegicus, UniProt P20786); assay: Immunohistochemistry of lung sections for pPDGFRα in the AAV-PDGFB SU5416 hypoxia model; type: in vivo; settings: vs V-V and TA-V
T2 construct: from tissue; host or cells: rat lung sections (male SD rats)
Description: (§1) Four weeks later, 20 mg/kg of semaxanib (SU5416) was administered using intraperitoneal (i.p.) injection, and the rats were housed in a hypoxia chamber at fraction of inspired oxygen (FiO2) 10% for 3 weeks. […] Daily treatments were administered starting day 2 after removing the rats from the hypoxia chamber and were continued for 4 weeks (28 days). Antigen retrieval was performed using heat-induced epitope retrieval. Immunohistochemistry of lung sections was performed for PDGFBB, total PDGFRα, total PDGFRβ, pPDGFRα, and pPDGFRβ. Signal detection was performed with an EXPOSE horseradish peroxidase/diaminobenzidine (HRP/DAB) kit.

pPDGFRβ (Y1021) [5] = biological target: T1, pPDGFRβ (Y1021); assay: Western blot of lung pPDGFRβ (Y1021) in the AAV-PDGFB SU5416 hypoxia model; type: in vivo; settings: vs V-V and TA-V, total PDGFRβ and β actin controls
Description: Four weeks later, 20 mg/kg of semaxanib (SU5416) was administered using intraperitoneal (i.p.) injection, and the rats were housed in a hypoxia chamber at fraction of inspired oxygen (FiO2) 10% for 3 weeks. […] Daily treatments were administered starting day 2 after removing the rats from the hypoxia chamber and were continued for 4 weeks (28 days). […] Lysates were normalized and separated on 7.5% or 12% polyacrylamide gels and transferred to nitrocellulose membranes. After blocking, the membranes were probed with one of the following antibodies: anti-PDGFRβ, anti-phospho ([…])-PDGFRβ, pMYPT, MYPT, pSTAT3, or STAT3. The samples were incubated overnight on a shaker, followed by a 1 hour incubation with secondary antibodies conjugated with HRP. Bound antibodies were detected by chemiluminescence using an enhanced chemiluminescence (ECL) detection system, and quantified by densitometry using a Licor C-Digit® Blot Scanner.

PDGFB gene expression = assay: PDGFB lung gene expression (RT-qPCR) in the AAV-PDGFB SU5416 hypoxia rat model; type: in vivo; settings: RT-qPCR normalized to 18S, 4 weeks treatment
Description: Four weeks later, 20 mg/kg of semaxanib (SU5416) was administered using intraperitoneal (i.p.) injection, and the rats were housed in a hypoxia chamber at fraction of inspired oxygen (FiO2) 10% for 3 weeks. […] Daily treatments were administered starting day 2 after removing the rats from the hypoxia chamber and were continued for 4 weeks (28 days). RNA from lung tissue was isolated using TRIzol™ reagent. The RNA concentration was measured using a Nanodrop™ 1000 Spectrophotometer. Equal amounts of RNA of each sample were transcribed to cDNA using a high-capacity cDNA Reverse Transcription kit. Reverse transcription (RT)-qPCR reactions were set up using TaqMan™ Gene Expression Master Mix and TaqMan™ primers/probes for PDGFB and 18S. The gene expression assay was carried out using a QuantStudio™ 6 Flex system. Gene expression was normalized to the expression of 18S, which was used as a housekeeping gene.

[6] = biological target: T3, phosphorylated PDGFRβ (Y1021) (Rattus norvegicus, UniProt Q05030); assay: Immunohistochemistry of lung sections for pPDGFRβ in the AAV-PDGFB SU5416 hypoxia model; type: in vivo; settings: vs V-V and TA-V
T3 construct: from tissue; host or cells: rat lung (male SD rats)
Description: as §1

[7] = test system: PDGFRβ isoform, PDGFRα isoform; settings: background statement; cited from earlier work
[8] = test system: patients with advanced PAH; settings: background statement; cited from earlier work
[9] = test system: rat monocrotaline model of PAH; settings: background statement; cited from earlier work
[10] = inhaled or intranasal, 0.4 mg/kg

T1 sequence (Q05030 32-1097): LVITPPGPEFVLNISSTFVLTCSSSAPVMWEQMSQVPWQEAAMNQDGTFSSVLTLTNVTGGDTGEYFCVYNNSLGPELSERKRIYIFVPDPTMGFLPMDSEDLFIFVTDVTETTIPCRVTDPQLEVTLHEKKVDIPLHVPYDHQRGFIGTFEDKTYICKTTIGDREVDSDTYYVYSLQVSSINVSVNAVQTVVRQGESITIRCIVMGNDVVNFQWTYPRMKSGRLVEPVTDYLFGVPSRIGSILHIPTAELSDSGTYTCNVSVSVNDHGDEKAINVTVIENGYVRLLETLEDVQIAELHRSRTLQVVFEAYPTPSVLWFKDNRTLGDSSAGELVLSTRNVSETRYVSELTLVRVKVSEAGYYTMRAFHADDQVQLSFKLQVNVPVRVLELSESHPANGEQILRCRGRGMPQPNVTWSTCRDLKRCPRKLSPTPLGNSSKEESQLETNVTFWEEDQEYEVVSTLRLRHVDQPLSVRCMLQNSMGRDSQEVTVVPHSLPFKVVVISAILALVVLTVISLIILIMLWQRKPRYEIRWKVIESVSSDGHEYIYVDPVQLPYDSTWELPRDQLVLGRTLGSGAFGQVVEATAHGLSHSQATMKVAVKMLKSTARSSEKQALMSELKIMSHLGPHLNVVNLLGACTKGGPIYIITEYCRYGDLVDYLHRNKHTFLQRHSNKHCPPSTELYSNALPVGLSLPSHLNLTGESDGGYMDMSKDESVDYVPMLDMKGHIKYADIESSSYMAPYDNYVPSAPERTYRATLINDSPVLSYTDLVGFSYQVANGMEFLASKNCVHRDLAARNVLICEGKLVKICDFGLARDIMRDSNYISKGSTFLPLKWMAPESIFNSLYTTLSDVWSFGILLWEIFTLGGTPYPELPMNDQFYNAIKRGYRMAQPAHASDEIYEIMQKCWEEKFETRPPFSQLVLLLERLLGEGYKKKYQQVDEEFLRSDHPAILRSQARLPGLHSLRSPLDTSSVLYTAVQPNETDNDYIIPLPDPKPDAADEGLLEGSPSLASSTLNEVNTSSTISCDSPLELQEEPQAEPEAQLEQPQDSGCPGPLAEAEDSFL
Sequence of PDGFRβ (P09619 33-1106): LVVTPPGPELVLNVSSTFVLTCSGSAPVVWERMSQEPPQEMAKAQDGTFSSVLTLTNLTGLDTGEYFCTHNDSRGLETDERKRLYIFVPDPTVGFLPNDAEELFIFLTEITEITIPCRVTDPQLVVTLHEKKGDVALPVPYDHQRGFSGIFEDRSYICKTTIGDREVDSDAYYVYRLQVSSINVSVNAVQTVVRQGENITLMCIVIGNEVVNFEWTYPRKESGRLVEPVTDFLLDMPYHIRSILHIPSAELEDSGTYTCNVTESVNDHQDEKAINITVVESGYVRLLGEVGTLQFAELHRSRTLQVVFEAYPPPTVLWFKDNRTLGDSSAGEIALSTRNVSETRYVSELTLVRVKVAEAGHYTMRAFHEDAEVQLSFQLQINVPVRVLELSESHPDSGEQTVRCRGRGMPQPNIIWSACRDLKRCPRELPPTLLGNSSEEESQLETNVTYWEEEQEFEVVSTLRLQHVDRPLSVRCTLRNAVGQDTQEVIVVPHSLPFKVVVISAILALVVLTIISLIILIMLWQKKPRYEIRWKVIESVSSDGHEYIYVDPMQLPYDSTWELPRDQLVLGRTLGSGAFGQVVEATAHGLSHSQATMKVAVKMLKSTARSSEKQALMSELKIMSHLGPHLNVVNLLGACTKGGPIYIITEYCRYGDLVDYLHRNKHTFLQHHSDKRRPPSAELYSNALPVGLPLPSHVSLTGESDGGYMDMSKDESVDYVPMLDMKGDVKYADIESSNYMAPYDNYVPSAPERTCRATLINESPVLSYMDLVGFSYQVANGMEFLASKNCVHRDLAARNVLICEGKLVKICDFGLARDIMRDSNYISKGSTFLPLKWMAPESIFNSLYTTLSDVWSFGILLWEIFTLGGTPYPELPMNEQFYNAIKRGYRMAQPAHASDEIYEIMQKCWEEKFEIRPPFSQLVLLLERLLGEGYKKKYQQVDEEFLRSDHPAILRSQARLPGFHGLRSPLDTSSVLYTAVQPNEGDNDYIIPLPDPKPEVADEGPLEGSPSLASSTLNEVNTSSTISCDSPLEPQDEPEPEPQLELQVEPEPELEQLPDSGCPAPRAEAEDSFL
T2 sequence (P20786 24-1088): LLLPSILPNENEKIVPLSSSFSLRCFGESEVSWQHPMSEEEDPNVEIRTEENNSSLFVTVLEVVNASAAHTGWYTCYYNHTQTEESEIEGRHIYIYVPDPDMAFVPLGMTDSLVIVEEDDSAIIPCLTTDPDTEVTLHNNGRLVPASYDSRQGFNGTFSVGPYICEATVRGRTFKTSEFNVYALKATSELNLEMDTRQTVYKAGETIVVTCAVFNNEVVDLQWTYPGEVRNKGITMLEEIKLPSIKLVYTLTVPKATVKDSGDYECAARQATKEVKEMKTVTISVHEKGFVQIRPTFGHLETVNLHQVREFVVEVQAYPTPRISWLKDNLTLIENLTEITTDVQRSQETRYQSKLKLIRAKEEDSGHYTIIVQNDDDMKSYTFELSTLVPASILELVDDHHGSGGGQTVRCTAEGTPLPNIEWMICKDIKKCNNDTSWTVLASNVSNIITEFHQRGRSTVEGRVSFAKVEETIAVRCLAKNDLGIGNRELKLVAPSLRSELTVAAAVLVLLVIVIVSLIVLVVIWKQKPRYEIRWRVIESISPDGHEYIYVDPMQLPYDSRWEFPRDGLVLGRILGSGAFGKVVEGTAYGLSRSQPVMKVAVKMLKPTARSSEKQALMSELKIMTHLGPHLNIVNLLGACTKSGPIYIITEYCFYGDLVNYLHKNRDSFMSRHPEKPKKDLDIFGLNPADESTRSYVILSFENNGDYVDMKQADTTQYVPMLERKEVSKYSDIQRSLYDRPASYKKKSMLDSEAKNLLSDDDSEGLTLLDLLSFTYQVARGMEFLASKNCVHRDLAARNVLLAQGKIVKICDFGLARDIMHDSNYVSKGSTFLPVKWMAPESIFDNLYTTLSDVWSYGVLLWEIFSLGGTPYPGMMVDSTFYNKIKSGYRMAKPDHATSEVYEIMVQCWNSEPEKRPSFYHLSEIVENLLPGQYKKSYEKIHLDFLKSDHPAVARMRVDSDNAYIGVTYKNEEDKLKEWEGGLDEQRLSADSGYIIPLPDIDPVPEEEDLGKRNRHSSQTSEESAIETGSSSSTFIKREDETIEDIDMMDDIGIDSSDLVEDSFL
T3 sequence (Q05030 32-1097): as the sequence (Q05030 32-1097) above

Structure (SMILES): COc1ccc(-c2cncc(N[C@@H](C)c3cccc(NC(=O)c4cncc(C)c4)c3)n2)cc1OC [Compound 1]
- pPDGFRβ levels in lung compared to animals treated with the vehicle (pPDGFRβ (Y1021) [1]): decreased pPDGFRβ levels
- maximum arterial and venous average concentrations ([2]; male, Sprague Dawley): about 1 μg/mL
- time after administration at which average arterial and venous concentrations reached zero ([2]; male, Sprague Dawley): about 400 minutes
- AUC(0-inf) ([2]; inhaled or intranasal): 25403.578 µg·min/g
- AUC(0-t) ([2]; inhaled or intranasal): 23583.976 µg·min/g
- lumen/media ratio of pulmonary arterioles ([3]; H&E lung sections, four weeks treatment, mean±SEM): 0.76±0.04
- AVG RVSP ([3]; Table 4, four weeks treatment): 44.30 mm Hg
- % Reduction RVSP ([3]; Table 4, vs V-V): 29%
- decrease of RV/(LV+IVS) ratio compared to the vehicle (V-V) group ([3]; four weeks treatment): 25%
- decrease of RVSP compared to vehicle (V-V) ([3]; four weeks treatment): 29%
- RVSP ([3]; four weeks, tadalafil 10 mg/kg and ambrisentan 10 mg/kg gavage once daily, Compound 1 0.6 mg/kg inhaled twice daily, mean±SEM): 44.3±1.9 mm Hg
- right ventricular hypertrophy, RV/(LV+IVS) ([3]; ratio of RV weight to LV plus interventricular septum weight, four weeks treatment, mean±SEM): 0.36±0.01
- Kp (in vivo; 0.4 mg/kg): 20 to 80
- AUC(0-inf) (in vivo; [10]): 2130 ng·h/mL
- AUC(0-t) (in vivo; [10]): 1940 ng·h/mL
- half-life (in vivo; inhaled or intranasal, terminal half-life in lung (t1/2β)): 6.43 h
- half-life (in vivo; inhaled or intranasal, terminal half-life in plasma): 2.08 h
- fold more potent than imatinib at inhibiting PDGFB-stimulated phosphorylation of PDGFRβ (PDGFRβ): about 2.5 fold
- phosphorylated PDGFRα (Y751) in the lungs [4]: decrease
- pPDGFRβ (Y1021) in the lungs (pPDGFRβ (Y1021) [5]): decreases
- effect on levels of PDGFB gene expression (PDGFB gene expression): did not affect levels of PDGFB gene expression significantly
- phosphorylated PDGFRβ (Y1021) in the lungs [6]: decrease

Structure (SMILES): Cc1ccc(NC(=O)c2ccc(CN3CCN(C)CC3)cc2)cc1Nc1nccc(-c2cccnc2)n1 [imatinib]
- potency against PDGFR isoforms [7]: less potent against the PDGFRβ isoform than the PDGFRα isoform
- cardiopulmonary hemodynamics [8]: improves
- right ventricular systolic pressure (RVSP) [9]: decreases
- survival [9]: improves survival
